Measured values reported in patent publication US12319752B2, “Heparin-binding cationic peptide self-assembling peptide amphiphiles useful against drug-resistant bacteria” (priority 2016, dated 2025).
Residues, ends and D or L forms follow the SMILES beside them. *: point of attachment. Palmitoyl = CCCCCCCCCCCCCCCC(=O)*

System: human dermal fibroblasts (HDF)
Experiment: Cytotoxicity, MTS cell viability assay
Assay type: cell-based
Conditions: HDF, concentrations higher than 20 μM, 24 h
Experimental: To evaluate the cytotoxicity of the peptides, human dermal fibroblasts (HDF) were treated for 24 h, and cell viability was determined via MTS assays (FIG. 13).
Human dermal fibroblast cells (HDF, Detroit 551, ATCC #CCL-110) were cultured in Dulbecco's modified Eagle medium (DMEM; Fisher, Pittsburgh, PA) supplemented with 10% fetal bovine serum (FBS) and 1% penicillin/streptomycin for 24 h. All cells were cultured to 90% confluence in a 37° C., humidified, 5% CO2/95% air environment. Cells at passage numbers of 4-7 were used in these experiments.
The MTS cell viability assay kit (Promega, Madison, WI, USA) was used to determine cytotoxicity of the peptides. First, HDF cells were seeded on a 96-well plate at a cell density of 5,000 cells/well (equal to 15,385 cells/cm^2), and were incubated overnight for cell adhesion. After overnight incubation, the cell medium in each well was replaced by 100 μL of cell culture medium containing various concentrations of peptides (20 μM to 100 μM). The control samples were cells incubated in cell culture medium only. After 24 h, the treatment medium in each well was removed. The cells were washed with phosphate buffered saline (PBS, pH=7.4, Fisher, PA, USA) and 100 μL of fresh cell culture medium was added to each well, followed by the addition of 20 μL of the MTS reagent. After the cells were incubated for 2.5 h, the absorbance was measured at a wavelength of 490 nm by a spectrophotometer (SpectraMax M3, Molecular Devices, Molecular Devices, Sunnyvale, CA, USA). To estimate the cell numbers in each well, a standard curve expressing the linear correlation between different cell densities and optical densities (R^2>0.95) was plotted, and the cell numbers were determined with this standard curve from the OD490 value recorded in each sample. The cell viability of each sample was calculated by: Cell viability=[(cell density per mL of treated sample)/(cell density per mL of control sample)]×100%. Data were expressed by standard error of the mean (±S.E.M.) and N=3, *p<0.05 compared with control samples.

Compound: CCCCCCCCCCCCCCCC(=O)N[C@H](C(=O)N[C@H](C(=O)N[C@H](C(=O)N[C@H](C(=O)N[C@@H](CCCCN)C(=O)N[C@@H](CCCCN)C(=O)N[C@@H](CCCCN)C(=O)N[C@@H](CCCCN)C(=O)O)C(C)C)C(C)C)C(C)C)C(C)C [CVK-PA, C16-V4K4 (SEQ ID NO: 1), reference compound] (Palmitoyl-VVVVKKKK-OH)
- cell death: over 40%
